# Reference: ChEMBL document CHEMBL6134849, “A Water-Soluble Aggregation-Induced Emission Photosensitizer with Intrinsic Antibacterial Activity as an Antiplanktonic and Antibiofilm Therapeutic Agent” (J Med Chem, 2025)
# Activity calls are given as the source filed them. The calls are words filed in the database; no cut-off is given here.
# Experiments:
# Staphylococcus aureus [1] = experiment: In vivo antibacterial activity against methicillin-resistant Staphylococcus aureus ATCC 43300 infected in female BALB/c mouse skin wound infection model assessed as reduction in inflammatory cell infiltration in wound at 90 uM pre-infected with bacteria for 24 hrs followed by topical compound addition for 10 mins in presence of 600 nm 60 mW/cm2 light irradiation for 15 mins and measured on day 6 by Masson trichrome staining based analysis; assay type: functional, organism-based; conditions: time 6.0 day
# Staphylococcus aureus [2] = experiment: Downregulation of lytH expression level in Staphylococcus aureus at 6.25 uM incubated for 1 hr in absence of light irradiation; assay type: functional
# Staphylococcus aureus [3] = experiment: Downregulation of ssl7 protein expression in Staphylococcus aureus under light irradiation; assay type: functional
# Staphylococcus aureus [4] = experiment: Downregulation of sepF expression level in Staphylococcus aureus at 6.25 uM incubated for 1 hr in absence of light irradiation; assay type: functional
# Staphylococcus aureus [5] = experiment: Downregulation of murG expression level in Staphylococcus aureus at 6.25 uM incubated for 1 hr in absence of light irradiation; assay type: functional
# Staphylococcus aureus [6] = experiment: Downregulation of gltX expression level in Staphylococcus aureus at 6.25 uM incubated for 1 hr in absence of light irradiation; assay type: functional
# Pseudomonas aeruginosa [7] = experiment: Antibacterial activity against Pseudomonas aeruginosa ATCC 27853 in presence of Muller-Hinton medium by broth microdilution method; assay type: functional
# Staphylococcus aureus [8] = experiment: Downregulation of engB expression level in Staphylococcus aureus at 6.25 uM incubated for 1 hr in absence of light irradiation; assay type: functional
# Staphylococcus aureus [9] = experiment: Downregulation of murC expression level in Staphylococcus aureus at 6.25 uM incubated for 1 hr in absence of light irradiation; assay type: functional
# Staphylococcus aureus [10] = experiment: Downregulation of lysS expression level in Staphylococcus aureus at 6.25 uM incubated for 1 hr in absence of light irradiation; assay type: functional
# Staphylococcus aureus [11] = experiment: Downregulation of div1B expression level in Staphylococcus aureus at 6.25 uM incubated for 1 hr in absence of light irradiation; assay type: functional
# Cell membrane [12] = experiment: Induction of cell membrane damage in Staphylococcus aureus assessed as protein leakage at 10 uM preincubated with compound for 20 mins followed by 600 nm light irradiation for 45 min by absorption based plate reader analysis; assay type: subcellular; conditions: time 65.0 min
# Staphylococcus aureus [13] = experiment: Antibiofilm activity against Staphylococcus aureus assessed as mature biofilm eradication incubated for 24 hrs under dark condition in absence of light irradiation by crystal violet staining based analysis; assay type: functional, organism-based
# [14] = Induction of type-I ROS generation in PBS assessed as increase in singlet oxygen by measuring increase in SOSG fluorescence intensity at 10 uM irradiated with 660 nm 60 mW/cm2 light for 15 mins by SOSG probe based plate reader analysis; assay type: functional
# Staphylococcus aureus [15] = experiment: Downregulation of ileS expression level in Staphylococcus aureus at 6.25 uM incubated for 1 hr in absence of light irradiation; assay type: functional
# Staphylococcus aureus [16] = experiment: Downregulation of hisS expression level in Staphylococcus aureus at 6.25 uM incubated for 1 hr in absence of light irradiation; assay type: functional
# Pseudomonas aeruginosa [17] = experiment: Selective drug uptake in Pseudomonas aeruginosa co-cultured with human HFF-1 cells by measuring fluorescence signal at 10 uM incubated for 20 mins; assay type: ADME, organism-based; conditions: hff-1, 20 min
# Cell membrane [18] = experiment: Induction of cell membrane damage in Staphylococcus aureus assessed as RNA leakage at 10 uM preincubated with compound for 20 mins followed by 600 nm light irradiation for 45 min by absorption based plate reader analysis; assay type: subcellular; conditions: time 65.0 min
# Staphylococcus aureus [19] = experiment: Downregulation of ftsZ expression level in Staphylococcus aureus at 6.25 uM incubated for 1 hr in absence of light irradiation; assay type: functional
# Staphylococcus aureus [20] = experiment: Downregulation of alr1 expression level in Staphylococcus aureus at 6.25 uM incubated for 1 hr in absence of light irradiation; assay type: functional
# Cell membrane [21] = experiment: Induction of cell membrane damage in Pseudomonas aeruginosa assessed as RNA leakage at 10 uM preincubated with compound for 20 mins followed by 600 nm light irradiation for 45 min by absorption based plate reader analysis; assay type: subcellular; conditions: time 65.0 min
# Cell membrane [22] = experiment: Induction of cell membrane damage in Staphylococcus aureus assessed as bacterial cell shrinkage at 10 uM preincubated with compound for 20 mins followed by 600 nm light irradiation for 45 min by SEM analysis; assay type: subcellular; conditions: time 65.0 min
# Cell membrane [23] = experiment: Induction of cell membrane damage in Pseudomonas aeruginosa assessed as bacterial cell shrinkage at 10 uM preincubated with compound for 20 mins followed by 600 nm light irradiation for 45 min by SEM analysis; assay type: subcellular; conditions: time 65.0 min
# Staphylococcus aureus [24] = experiment: Downregulation of femX expression level in Staphylococcus aureus at 6.25 uM incubated for 1 hr in absence of light irradiation; assay type: functional
# Staphylococcus aureus [25] = experiment: Downregulation of valS expression level in Staphylococcus aureus at 6.25 uM incubated for 1 hr in absence of light irradiation; assay type: functional
# Pseudomonas aeruginosa [26] = experiment: Antibiofilm activity against Pseudomonas aeruginosa assessed as bacterial eradication by measuring green fluorescence signal at 10 uM incubated for 1 hrs in presence of light irradiation by calcein-AM fluorescence dye based analysis; assay type: functional, organism-based
# Staphylococcus aureus [27] = experiment: Antibacterial activity against Staphylococcus aureus at 6.25 uM measured within 2 hrs in absence of light irradiation by time-kill kinetics assay relative to control; assay type: functional
# Staphylococcus aureus [28] = experiment: Downregulation of murD expression level in Staphylococcus aureus at 6.25 uM incubated for 1 hr in absence of light irradiation; assay type: functional
# Staphylococcus aureus [29] = experiment: In vivo antibacterial activity against methicillin-resistant Staphylococcus aureus ATCC 43300 infected in female BALB/c mouse skin wound infection model assessed as reduction in wound area at 90 uM pre-infected with bacteria for 24 hrs followed by topical compound addition for 10 mins in presence of 600 nm 60 mW/cm2 light irradiation for 15 mins and measured on day 4; assay type: functional, organism-based; conditions: time 4.0 day
# Staphylococcus aureus [30] = experiment: In vivo antibacterial activity against methicillin-resistant Staphylococcus aureus ATCC 43300 infected in female BALB/c mouse skin wound infection model assessed as collagen deposition in wound at 90 uM pre-infected with bacteria for 24 hrs followed by topical compound addition for 10 mins in presence of 600 nm 60 mW/cm2 light irradiation for 15 mins and measured on day 6 by Masson trichrome staining based analysis; assay type: functional, organism-based; conditions: time 6.0 day
# Cell membrane [31] = experiment: Induction of cell membrane damage in Staphylococcus aureus assessed as bacterial cell collapse at 10 uM preincubated with compound for 20 mins followed by 600 nm light irradiation for 45 min by SEM analysis; assay type: subcellular; conditions: time 65.0 min
# Staphylococcus aureus [32] = experiment: Downregulation of cell wall organization related proteins in Staphylococcus aureus under light irradiation; assay type: functional, organism-based
# [33] = Induction of type-II ROS generation in PBS assessed as increase in nonspecific ROS by measuring increase in DHR123 fluorescence intensity at 10 uM irradiated with 660 nm 60 mW/cm2 light for 15 mins by DHR123 probe based plate reader analysis; assay type: functional
# Staphylococcus aureus [34] = experiment: Downregulation of hlgB protein expression in Staphylococcus aureus under light irradiation; assay type: functional
# [35] = biological target: DNA gyrase (Staphylococcus aureus) (UniProt P0A0K8+P20831); experiment: Inhibition of Staphylococcus aureus DNA gyrase supercoiling using relaxed pBR322 as substrate at 3.125 to 25 uM incubated for 30 mins in absence of light irradiation by gel based method; assay type: protein-complex assay; conditions: dose 3.125-25 µM
# Staphylococcus aureus [36] = experiment: Downregulation of tyrS expression level in Staphylococcus aureus at 6.25 uM incubated for 1 hr in absence of light irradiation; assay type: functional
# [37] = Drug uptake in human HFF-1 cells co-cultured with Staphylococcus aureus by measuring fluorescence signal at 10 uM incubated for 20 mins; assay type: ADME, cell-based; conditions: hff-1, 20 min
# DNA gyrase (Staphylococcus aureus), sequence (P0A0K8 2-644 limits assumed): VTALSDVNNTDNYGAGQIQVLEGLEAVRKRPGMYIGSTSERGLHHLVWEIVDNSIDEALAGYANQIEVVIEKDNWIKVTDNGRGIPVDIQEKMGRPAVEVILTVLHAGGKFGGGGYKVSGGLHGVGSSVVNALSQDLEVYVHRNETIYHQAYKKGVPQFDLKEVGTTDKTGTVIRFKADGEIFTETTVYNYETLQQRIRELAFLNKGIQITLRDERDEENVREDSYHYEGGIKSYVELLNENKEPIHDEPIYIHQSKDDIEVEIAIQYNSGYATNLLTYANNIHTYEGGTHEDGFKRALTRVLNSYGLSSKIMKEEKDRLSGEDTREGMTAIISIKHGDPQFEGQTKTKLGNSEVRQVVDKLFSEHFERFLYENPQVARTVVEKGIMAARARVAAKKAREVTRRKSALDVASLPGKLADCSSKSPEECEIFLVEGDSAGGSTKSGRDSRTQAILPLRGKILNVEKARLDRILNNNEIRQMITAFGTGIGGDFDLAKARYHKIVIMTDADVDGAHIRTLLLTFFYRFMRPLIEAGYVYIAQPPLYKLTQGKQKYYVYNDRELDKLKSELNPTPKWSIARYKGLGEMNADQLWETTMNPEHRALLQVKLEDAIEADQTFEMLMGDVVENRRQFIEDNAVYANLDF
# DNA gyrase (Staphylococcus aureus), sequence (P20831 whole entry partner): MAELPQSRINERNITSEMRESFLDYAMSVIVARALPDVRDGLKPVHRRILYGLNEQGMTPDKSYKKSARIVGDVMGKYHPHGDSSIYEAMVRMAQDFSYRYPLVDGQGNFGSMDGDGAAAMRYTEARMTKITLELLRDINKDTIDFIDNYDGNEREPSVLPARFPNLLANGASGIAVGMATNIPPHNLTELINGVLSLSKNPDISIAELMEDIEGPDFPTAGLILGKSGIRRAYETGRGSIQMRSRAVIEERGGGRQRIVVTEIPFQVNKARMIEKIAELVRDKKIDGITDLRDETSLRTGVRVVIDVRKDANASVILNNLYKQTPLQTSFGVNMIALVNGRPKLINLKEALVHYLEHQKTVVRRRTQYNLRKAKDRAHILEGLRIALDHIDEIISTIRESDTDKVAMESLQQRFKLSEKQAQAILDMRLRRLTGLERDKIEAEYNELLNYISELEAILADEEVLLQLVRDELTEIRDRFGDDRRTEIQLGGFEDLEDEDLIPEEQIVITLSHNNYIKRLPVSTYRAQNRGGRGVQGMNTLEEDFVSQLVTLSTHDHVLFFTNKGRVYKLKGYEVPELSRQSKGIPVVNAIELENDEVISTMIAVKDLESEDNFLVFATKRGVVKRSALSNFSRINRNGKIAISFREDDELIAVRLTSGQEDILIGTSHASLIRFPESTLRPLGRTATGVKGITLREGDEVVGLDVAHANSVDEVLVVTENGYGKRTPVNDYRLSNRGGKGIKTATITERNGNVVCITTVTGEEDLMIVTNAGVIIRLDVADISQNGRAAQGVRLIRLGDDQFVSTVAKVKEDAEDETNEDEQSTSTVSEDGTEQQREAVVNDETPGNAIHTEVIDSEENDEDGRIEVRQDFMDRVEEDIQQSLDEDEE
smiles,measurement,setting,value
C#CCC[n+]1c(/C=C/c2ccc(-c3ccc(N(c4ccc(OCCC[N+](C)(C)C)cc4)c4ccc(OCCC[N+](C)(C)C)cc4)cc3)s2)sc2ccccc21.[Br-].[Br-].[Br-],Activity,Staphylococcus aureus [1],Active
same,Activity,Staphylococcus aureus [2],Active
same,Activity,Staphylococcus aureus [3],Active
same,Activity,Staphylococcus aureus [4],Active
same,Activity,Staphylococcus aureus [5],Active
same,Activity,Staphylococcus aureus [6],Active
same,MIC,Pseudomonas aeruginosa [7],≤ 100 µM
same,Activity,Staphylococcus aureus [8],Active
same,Activity,Staphylococcus aureus [9],Active
same,Activity,Staphylococcus aureus [10],Active
same,Activity,Staphylococcus aureus [11],Active
same,Activity,Cell membrane [12],Active
same,Activity,Staphylococcus aureus [13],Active
same,Activity,[14],Active
same,Activity,Staphylococcus aureus [15],Active
same,Activity,Staphylococcus aureus [16],Active
same,Drug uptake,Pseudomonas aeruginosa [17],Active
same,Activity,Cell membrane [18],Active
same,Activity,Staphylococcus aureus [19],Active
same,Activity,Staphylococcus aureus [20],Active
same,Activity,Cell membrane [21],Active
same,Activity,Cell membrane [22],Active
same,Activity,Cell membrane [23],Active
same,Activity,Staphylococcus aureus [24],Active
same,Activity,Staphylococcus aureus [25],Active
same,Activity,Pseudomonas aeruginosa [26],Active
same,Activity,Staphylococcus aureus [27],100%
same,Activity,Staphylococcus aureus [28],Active
same,Activity,Staphylococcus aureus [29],Active
same,Activity,Staphylococcus aureus [30],Active
same,Activity,Cell membrane [31],Active
same,Activity,Staphylococcus aureus [32],Active
same,Activity,[33],Active
same,Activity,Staphylococcus aureus [34],Active
same,inhibition,[35],Active
same,Activity,Staphylococcus aureus [36],Active
same,Drug uptake,[37],Not_active
